Reference: PubChem BioAssay (NCI)
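Tested at 5 concentrations; 48 h exposure; 96-well plates; endpoints linearly interpolated, else capped at highest concentration. GI50: concentration for 50% inhibition of growth. TGI marks complete inhibition of growth.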

What was measured:
Assay in all cases: NCI tumour cell line growth inhibition, 48 h
DU-145 prostate = tested on: DU-145 prostate
HS 578T breast = tested on: HS 578T breast
MDA-MB-231 breast = tested on: MDA-MB-231 breast
MDA-N = tested on: MDA-N
DMS 273 small cell lung = tested on: DMS 273 small cell lung
HOP-18 NSCLC = tested on: HOP-18 NSCLC
RXF-631 renal = tested on: RXF-631 renal
M19-MEL melanoma = tested on: M19-MEL melanoma
XF 498 CNS = tested on: XF 498 CNS

SMILES	GI50 (DU-145 prostate)	TGI (DU-145 prostate)	GI50 (HS 578T breast)	TGI (HS 578T breast)	GI50 (MDA-MB-231 breast)	TGI (MDA-MB-231 breast)	further results
O=C(Nc1ccc(Cl)cc1)Nc1nccs1	3.82 µM	71.9 µM	1.33 µM	34.1 µM	3.18 µM	41.5 µM	
Oc1ccc(N=Nc2nccs2)c(O)c1	5.23 µM	17.1 µM	13.6 µM	78.1 µM	8.77 µM	> 100 µM	
NCCCOc1cc(Cl)ccc1NC(=O)c1cc2ccccc2cc1OCCCN	1.58 µM	2.95 µM	1.59 µM	3.57 µM	1.19 µM	2.69 µM	
COc1ccc(-c2cc(-c3ccc(Nc4ccnc5cc(Cl)ccc45)cc3)nc(N3CCOCC3)n2)cc1					7.52 µM	> 100 µM	
CC(Cl)CN1c2ccccc2Sc2ccc(Cl)cc21 (stereo not given)		> 10 µM		> 10 µM		> 10 µM	TGI (MDA-N): > 10 µM
N#Cc1c(-c2ccco2)cc(-c2ccc(N)cc2)[nH]c1=O							TGI (DMS 273 small cell lung): > 100 µM; TGI (HOP-18 NSCLC): > 100 µM; TGI (RXF-631 renal): > 100 µM
COc1cc(OC)c2sc(-c3ccc(-n4cncc4-c4cc(OC)c(OC)c(OC)c4)cc3)nc2c1	> 100 µM	> 100 µM			3.51 µM	> 100 µM	
Cn1cc(-c2csc(-c3cn(C)c4ccc(F)cc34)n2)c2cnccc21	1.74 µM	3.16 µM	2.36 µM	5.12 µM	1.75 µM	3.26 µM	
NC(=O)CNc1ccc([As]=[As]c2ccc(NCC(N)=O)cc2)cc1 (stereo not given)	6.48 µM	35 µM	1.45 µM	21.1 µM	3.27 µM	21 µM	
NC(CCc1ncc(C(=O)O)s1)C(=O)O (stereo not given)							TGI (HOP-18 NSCLC): > 100 µM; TGI (M19-MEL melanoma): > 100 µM; TGI (RXF-631 renal): > 100 µM
Clc1nc(Cl)c2ncn(Cc3ccccc3Cn3cnc4c(Cl)nc(Cl)nc43)c2n1	1.21 µM	2.65 µM	2.87 µM	9.39 µM	1.55 µM	3.01 µM	
Cc1cc(NCCCCNc2ccnc3cc(Cl)ccc23)nc(Nc2ccc(C(=O)N3CCCCC3)cc2)n1	2.87 µM	10.7 µM					
Cc1c2c(C(N)=O)nccc2c(C)c2c1c1ccccc1n2Cc1ccccc1		> 100 µM		31.5 µM		28 µM	TGI (MDA-N): > 100 µM
CCOC(=O)C1=C(Nc2ccc(Br)cc2)OCC1=O							TGI (DMS 273 small cell lung): > 100 µM; TGI (HOP-18 NSCLC): > 100 µM; TGI (M19-MEL melanoma): > 100 µM
COc1ccc(-c2ccc(NNC(=O)c3ccc(F)cc3)nn2)cc1OC	> 100 µM	> 100 µM	63.9 µM	> 100 µM	93 µM	> 100 µM	
COc1cc2c(cc1OC)C1Cc3cc(OC)c(OC)cc3N1CC2 (stereo not given)							TGI (M19-MEL melanoma): 80.5 µM; TGI (XF 498 CNS): 43.6 µM
C=CCC1(C)CCCCC1(O)CS(=O)c1ccccc1 (stereo not given)							TGI (DMS 273 small cell lung): > 100 µM; TGI (HOP-18 NSCLC): > 100 µM; TGI (M19-MEL melanoma): > 100 µM; TGI (RXF-631 renal): > 100 µM
C=C1C(O)C2C(=C(C)C13CC3)C(=O)C(C)(C)C2OC (stereo not given)	> 100 µM	> 100 µM	59.6 µM	> 100 µM	53.4 µM	> 100 µM	
Cc1ccc(C)c(N2C(=O)C(=O)C(c3nc4ccccc4o3)/C(=N/N)C2=O)c1 (stereo not given)							TGI (DMS 273 small cell lung): > 100 µM; TGI (HOP-18 NSCLC): > 100 µM; TGI (M19-MEL melanoma): > 100 µM; TGI (XF 498 CNS): > 100 µM

SMILES	GI50 (DU-145 prostate)	TGI (DU-145 prostate)	GI50 (HS 578T breast)	TGI (HS 578T breast)	GI50 (MDA-MB-231 breast)	TGI (MDA-MB-231 breast)	further results
c1ccc2c(c1)c1ccccc1c1ccccc21	> 100 µM	> 100 µM	> 100 µM	> 100 µM	87.2 µM	> 100 µM	
Nc1ccc(C2=N/C(=C\c3cccc(N)c3)C(=O)O2)cc1							TGI (M19-MEL melanoma): > 100 µM; TGI (RXF-631 renal): > 100 µM; TGI (XF 498 CNS): > 100 µM
N#CC(C#N)=C1CCCOc2c1ccc1ccccc21	> 100 µM	> 100 µM	33.4 µM	> 100 µM			
Cc1ccc(N2C(=O)N(c3ccc(C)cc3)C3(SC=NN3C)C2=O)cc1 (stereo not given)							TGI (HOP-18 NSCLC): > 100 µM; TGI (M19-MEL melanoma): > 100 µM
COc1ccc(-c2noc(N)c2-c2cc(OC)c3c(c2)OCO3)cc1	3.42 µM	> 90.9 µM	2.61 µM	24.4 µM	2.76 µM	60.9 µM	
CC1=NC(C)(COC(=O)C2(C)NC(C)(CO)CO2)COC1=O (stereo not given)		> 100 µM		> 100 µM		> 100 µM	TGI (MDA-N): > 100 µM
NC(=O)c1cn(Cc2ccccc2)c(=O)n1Cc1ccccc1							TGI (DMS 273 small cell lung): > 100 µM; TGI (HOP-18 NSCLC): > 100 µM; TGI (M19-MEL melanoma): > 100 µM; TGI (XF 498 CNS): > 100 µM
COC(=O)C(=O)CC(=O)c1cccc(OC)c1		> 100 µM		> 100 µM		> 100 µM	TGI (MDA-N): > 100 µM
O=C(NNc1cnccn1)c1nc2cc(F)ccc2n2cccc12	0.745 µM	> 100 µM	2.83 µM	> 100 µM	0.597 µM	> 100 µM	
O=[N+]([O-])c1ccc(Sc2c3ccccc3nc3ccccc23)cn1		26.5 µM		29.7 µM		42.5 µM	TGI (MDA-N): 31.8 µM
NCCN.O=C([O-])[O-].O=C([O-])[O-].[Co+3].[K+]							GI50 (M19-MEL melanoma): > 100 µM; TGI (M19-MEL melanoma): > 100 µM
Oc1ccc(Oc2cnc3ccccc3n2)cc1	> 100 µM	> 100 µM			> 100 µM	> 100 µM	
COc1cc2c3c(n(CCCN(C)CCO)c(=O)c2cc1OC)-c1cc2c(cc1C3=O)OCO2	0.816 µM	> 100 µM	> 61.3 µM	> 100 µM	14 µM	49.9 µM	
COc1ccc(-c2cc(Nc3ccnc(N4CCOCC4)n3)on2)cc1	0.302 µM	13.4 µM	0.303 µM	9.8 µM	0.339 µM	22.5 µM	
CC(=O)NC1CONC1=O (stereo not given)		> 100 µM		> 100 µM		> 100 µM	TGI (MDA-N): > 100 µM
CC12CCC(=O)N1c1cccnc1N2 (stereo not given)							TGI (M19-MEL melanoma): > 100 µM; TGI (XF 498 CNS): > 100 µM
CCc1nc(Cl)c(Cl)c(Cl)n1				> 100 µM			
CC(C)(C)c1cc(C(=O)/C=C/c2ccc(C(=O)O)cc2)cc(C(C)(C)C)c1		8.52 µM		3.96 µM		13 µM	TGI (MDA-N): 8.6 µM
